Legend:
[1] = system: Common lambsquarters (CHEAL); assay: pre-emergence test, weed control; format: in vivo, Chenopodium album; conditions: pre-emergent, 28 DAT; BFL at 125 g/ha, DCI at 125 g/ha, combination of both
Method in brief: (§1)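 Visual 0–100 ratings of percent control against untreated flats, averaged across four replicate flats, were taken at 28 days after treatment for all species (21 days for wheat). Treatments went onto freshly seeded, watered soil before emergence at a spray volume of 30 gallons per acre.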

[2] = system: Green foxtail (SETVI); assay: post-emergence test, weed control; format: in vivo, Setaria viridis; conditions: post-emergent, 28 DAT, height 4-5 cm, rate g ai/ha by row: r7 94, r8 125, r9 188, r10 125, r11 250, r12 94+125, r13 125+125, r14 188+125, r15 94+250, r16 125+250, r17 188+250
[3] = system: Large crabgrass (DIGSA); assay: post-emergence test, weed control; format: in vivo; conditions: post-emergent, 28 DAT; for percentage of weed control, DIGSA: height 3-5 cm, rate g ai/ha by row: r25 94, r26 125, r27 188, r28 125, r29 250, r30 94+125, r31 125+125, r32 188+125, r33 94+250, r34 125+250, r35 188+250
Protocol: (§2) Test compositions containing the test compounds were diluted with water to provide the appropriate test rate concentrations.
(§3) For post-emergence testing, seeds of each species for each rate of application of each herbicide solution were planted in 7.5 cm×7.5 cm plastic pots filled with potting soil. The seeds were germinated and the resulting plants were allowed to grow in a greenhouse until they reached a growth stage, such as height, suitable for testing. Treatments were applied using compressed air in a track spray chamber at 30 gallons/acre (280 L/ha) using a TeeJet 8001E nozzle at 40 psi (2.76 bars). Pots of post-emergent treated plants were returned to the greenhouse and not watered for 24 hours after treatment. Thereafter they were regularly watered and fertilized for the duration of the test.
(§4) The control of weeds was evaluated in each experimental test at 21 for wheat and 28 days after treatment (DAT) for all species. Data were analyzed using Minitab software at 95% confidence interval. The results, shown as an average of the replications, were compared with results observed in untreated control flats in the same tests. Percent control was determined by a method similar to the 0 to 100 rating system disclosed in “Research Methods in Weed Science,” 2nd ed., B. Truelove, Ed.; Southern Weed Science Society; Auburn University, Auburn, Ala., 1977. The rating system is as follows in Table 1.

[4] = system: Annual bluegrass (POAAN); assay: post-emergence test, weed control; format: in vivo, Poa annua; conditions: post-emergent, 28 DAT, height 1-2 cm; rate g ai/ha by row: r7 94, r8 125, r9 188, r10 125, r11 250, r12 94+125, r13 125+125, r14 188+125, r15 94+250, r16 125+250, r17 188+250
Protocol: as §2, §3, §4

[5] = system: Palmer amaranth (AMAPA); assay: pre-emergence test, weed control; format: in vivo, Amaranthus palmeri; conditions: pre-emergent, 28 DAT; for percentage of weed control, AMAPA: (−)-BFL >95% e.e., rate g ai/ha by row: r6 62, r7 125, r8 125, r9 250, r10 445, r11 890, r12 45, r13 90, r14 62+125, r15 125+125, r16 62+250, r17 125+250, r18 62+445, r19 125+445, r20 62+890, r21 125+890, r22 62+45, r23 125+45, r24 62+90, r25 125+90
Method in brief: as §1

[6] = system: Italian ryegrass (LOLMU); assay: post-emergence test, weed control; format: in vivo, Lolium perenne. multiflorum; conditions: post-emergent, 28 DAT; for percentage of weed control, LOLMU: height 5-6 cm, rate g ai/ha by row: r25 94, r26 125, r27 188, r28 125, r29 250, r30 94+125, r31 125+125, r32 188+125, r33 94+250, r34 125+250, r35 188+250; for control of Italian rygrass (LOLMU): combination of both
Protocol: as §2, §3, §4

[7] = system: Wild oat (AVEFA); assay: post-emergence test, weed control; format: in vivo, Avena fatua; conditions: post-emergent, 28 DAT; for percentage of weed control, AVEFA: height 11 cm, rate g ai/ha by row: r25 94, r26 125, r27 188, r28 125, r29 250, r30 94+125, r31 125+125, r32 188+125, r33 94+250, r34 125+250, r35 188+250; for control of wild oats (AVEFA): DCI at 250 g/ha, combination of both
Protocol: as §2, §3, §4

[8] = system: Littleseed canarygrass (PHAMI); assay: post-emergence test, weed control; format: in vivo, Phalaris minor; conditions: post-emergent, 28 DAT, height 7-8 cm, rate g ai/ha by row: r25 94, r26 125, r27 188, r28 125, r29 250, r30 94+125, r31 125+125, r32 188+125, r33 94+250, r34 125+250, r35 188+250
Protocol: as §2, §3, §4

[9] = system: Silky windgrass (APSEV); assay: post-emergence test, weed control; format: in vivo; conditions: post-emergent, 28 DAT, height 1-1.5 cm, rate g ai/ha by row: r25 94, r26 125, r27 188, r28 125, r29 250, r30 94+125, r31 125+125, r32 188+125, r33 94+250, r34 125+250, r35 188+250
[10] = system: Barnyardgrass (ECHCG); assay: post-emergence test, weed control; format: in vivo, Echinochloa crus-galli; conditions: post-emergent, 28 DAT; for percentage of weed control, ECHCG: height 8-9 cm, rate g ai/ha by row: r7 94, r8 125, r9 188, r10 125, r11 250, r12 94+125, r13 125+125, r14 188+125, r15 94+250, r16 125+250, r17 188+250
Protocol: as §2
as §3, with “Treatments were applied using compressed air in a track spray chamber at 30 gallons/acre (280 L/ha) using a TeeJet 8001E nozzle at 40 psi (2.76 bars).” left out
The control of weeds was evaluated in each experimental test at 21 for wheat and 28 days after treatment (DAT) for all species. […] The rating system is as follows in Table 1.

[11] = BFL at 125 g/ha, DCI at 125 g/ha, combination of both

For `CC1(C)CON(Cc2ccc(Cl)cc2Cl)C1=O` [DCI, 2-(2,4-dichlorophenyl)methyl-4,4-dimethyl-3-isoxazolidinone], the “control of lambsquarters (CHEAL)” value [1] was 24%, the “percentage of weed control, SETVI” value ([2]; 125 g ai/ha) was 6% and the “percentage of weed control, SETVI” value ([2]; 250 g ai/ha) was 5%. The “percentage of weed control, DIGSA” value ([3]; 125 g ai/ha) was 17%, the “percentage of weed control, DIGSA” value ([3]; 250 g ai/ha) was 22% and the “control of large crabgrass (DIGSA)” value ([3]; BFL at 188 g/ha, DCI at 125 g/ha, combination of both) was 17%. For the same molecule, the “percentage of weed control, POAAN” value [4] was 0%, the “percentage of weed control, AMAPA” value ([5]; 125 g ai/ha) was 94% and the “percentage of weed control, AMAPA” value ([5]; 250 g ai/ha) was 99%. For the same molecule, the “control of Palmer amaranth (AMAPA)” value [5, 11] was 30%, the “percentage of weed control, LOLMU” value ([6]; 125 g ai/ha) was 0% and the “percentage of weed control, LOLMU” value ([6]; 250 g ai/ha) was 9%. The “control of Italian rygrass (LOLMU)” value ([6]; BFL at 188 g/ha, DCI at 125 g/ha) was 0%, the “control of Italian rygrass (LOLMU)” value ([6]; DCI at 250 g/ha, BFL at 125 g/ha) was 9% and the “percentage of weed control, AVEFA” value ([7]; 125 g ai/ha) was 60%. The “percentage of weed control, AVEFA” value ([7]; 250 g ai/ha) was 61%, the “control of wild oats (AVEFA)” value ([7]; BFL at 125 g/ha) was 61% and the “control of wild oats (AVEFA)” value ([7]; BFL at 188 g/ha) was 61%. The “percentage of weed control, PHAMI” value ([8]; 125 g ai/ha) was 4%, the “percentage of weed control, PHAMI” value ([8]; 250 g ai/ha) was 2% and the “percentage of weed control, APSEV” value ([9]; 125 g ai/ha) was 5%. For the same molecule, the “percentage of weed control, APSEV” value ([9]; 250 g ai/ha) was 0%, the “percentage of weed control, ECHCG” value ([10]; 125 g ai/ha) was 74% and the “percentage of weed control, ECHCG” value ([10]; 250 g ai/ha) was 69%. The “control of barnyardgrass (ECHCG)” value [10, 11] was 74%.

From patent publication US11412737B2, “Mixtures of beflubutamid or optically enriched forms thereof with a second herbicide” (FMC Corporation, priority 2016, dated 2022)
